Reference: PubChem BioAssay AID1918933 (Molecular Pharmacology Branch, DTP, NCI, 2023)

Test system: 186277-243-T-J2-PDC complex spheroid viability
Assay: Anticancer human tumor 186277-243-T-J2-PDC patient-derived colon adenocarcinoma cell line growth inhibition
Conditions: for IC50: curve of first compound; for viability, T/C: stronger effect = lower value
Outline: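 Multicellular complex spheroids of tumor cells with human endothelial cells (HUVEC) and mesenchymal stem cells; the LSD1 inhibitor iadademstat was combined with standard-of-care or investigational agents. Top concentration at or near clinical Cmax, half-log dilutions; final DMSO ≤0.25%.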

[1] = second compound 0.1 µM, first compound 0.000316 µM
[2] = second compound 0.1 µM, first compound 0.001 µM
[3] = second compound 0.1 µM, first compound 0.00316 µM
[4] = second compound 0.1 µM, first compound 0.01 µM
[5] = second compound 0.1 µM, first compound 0.0316 µM
[6] = second compound 0.1 µM, first compound 0.1 µM
[7] = second compound 0.316 µM, first compound 0.000316 µM
[8] = second compound 0.316 µM, first compound 0.001 µM
[9] = second compound 0.316 µM, first compound 0.00316 µM
[10] = second compound 0.316 µM, first compound 0.01 µM
[11] = second compound 0.316 µM, first compound 0.0316 µM
[12] = second compound 0.316 µM, first compound 0.1 µM
[13] = second compound 1 µM, first compound 0.000316 µM
[14] = second compound 1 µM, first compound 0.001 µM
[15] = second compound 1 µM, first compound 0.00316 µM
[16] = second compound 1 µM, first compound 0.01 µM
[17] = second compound 1 µM, first compound 0.0316 µM
[18] = second compound 1 µM, first compound 0.1 µM
[19] = second compound 3.16 µM, first compound 0.000316 µM
[20] = second compound 3.16 µM, first compound 0.001 µM
[21] = second compound 3.16 µM, first compound 0.00316 µM
[22] = second compound 3.16 µM, first compound 0.01 µM
[23] = second compound 3.16 µM, first compound 0.0316 µM
[24] = second compound 3.16 µM, first compound 0.1 µM
[25] = second compound 10 µM, first compound 0.000316 µM
[26] = second compound 10 µM, first compound 0.001 µM
[27] = second compound 10 µM, first compound 0.00316 µM
[28] = second compound 10 µM, first compound 0.01 µM
[29] = second compound 10 µM, first compound 0.0316 µM
[30] = second compound 10 µM, first compound 0.1 µM
[31] = second compound 0.1 µM, first compound 0.00949 µM
[32] = second compound 0.1 µM, first compound 0.03 µM
[33] = second compound 0.1 µM, first compound 0.0949 µM
[34] = second compound 0.1 µM, first compound 0.3 µM
[35] = second compound 0.1 µM, first compound 0.949 µM
[36] = second compound 0.1 µM, first compound 3 µM
[37] = second compound 0.316 µM, first compound 0.00949 µM
[38] = second compound 0.316 µM, first compound 0.03 µM
[39] = second compound 0.316 µM, first compound 0.0949 µM
[40] = second compound 0.316 µM, first compound 0.3 µM
[41] = second compound 0.316 µM, first compound 0.949 µM
[42] = second compound 0.316 µM, first compound 3 µM
[43] = second compound 1 µM, first compound 0.00949 µM
[44] = second compound 1 µM, first compound 0.03 µM
[45] = second compound 1 µM, first compound 0.0949 µM
[46] = second compound 1 µM, first compound 0.3 µM
[47] = second compound 1 µM, first compound 0.949 µM
[48] = second compound 1 µM, first compound 3 µM
[49] = second compound 3.16 µM, first compound 0.00949 µM
[50] = second compound 3.16 µM, first compound 0.03 µM
[51] = second compound 3.16 µM, first compound 0.0949 µM
[52] = second compound 3.16 µM, first compound 0.3 µM
[53] = second compound 3.16 µM, first compound 0.949 µM
[54] = second compound 3.16 µM, first compound 3 µM
[55] = second compound 10 µM, first compound 0.00949 µM
[56] = second compound 10 µM, first compound 0.03 µM
[57] = second compound 10 µM, first compound 0.0949 µM
[58] = second compound 10 µM, first compound 0.3 µM
[59] = second compound 10 µM, first compound 0.949 µM
[60] = second compound 10 µM, first compound 3 µM
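Further: 7 day exposure to compounds.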
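Wherever viability, T/C is given: 100% = DMSO vehicle control viability.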

CC(C)CC(NC(=O)C(Cc1ccccc1)NC(=O)c1cnccn1)B(O)O (stereo not given) + NC1CC1c1ccc(-c2cccc(O)c2)cc1
IC50 (second compound 0.1 µM): 0.601 nM
IC50 (second compound 0.316 µM): 0.547 nM
IC50 (second compound 1 µM): 0.548 nM
IC50 (second compound 3.16 µM): 0.57 nM
IC50 (second compound 10 µM): 0.557 nM
viability, T/C [1]: 108%
viability, T/C [2]: 3.98%
viability, T/C [3]: 0.06%
viability, T/C [4]: 0.02%
viability, T/C [5]: 0.02%
viability, T/C [6]: 0.12%
viability, T/C [7]: 94.1%
viability, T/C [8]: 1.53%
viability, T/C [9]: 0.04%
viability, T/C [10]: 0.01%
viability, T/C [11]: 0.37%
viability, T/C [12]: 0.1%
viability, T/C [13]: 94.3%
viability, T/C [14]: 1.48%
viability, T/C [15]: 0.05%
viability, T/C [16]: 0.02%
viability, T/C [17]: 0.07%
viability, T/C [18]: 0.1%
viability, T/C [19]: 101%
viability, T/C [20]: 1.66%
viability, T/C [21]: 0.06%
viability, T/C [22]: 0.02%
viability, T/C [23]: 0.64%
viability, T/C [24]: 0.74%
viability, T/C [25]: 97.9%
viability, T/C [26]: 0.65%
viability, T/C [27]: 0.13%
viability, T/C [28]: 0.2%
viability, T/C [29]: 0.13%
viability, T/C [30]: 0.89%

CC(C)CC(NC(=O)CNC(=O)c1cc(Cl)ccc1Cl)B1OC(=O)CC(CC(=O)O)(C(=O)O)O1 (stereo not given) + NC1CC1c1ccc(-c2cccc(O)c2)cc1
IC50 (second compound 0.1 µM): 10.5 nM
IC50 (second compound 0.316 µM): 11 nM
IC50 (second compound 1 µM): 10.7 nM
IC50 (second compound 3.16 µM): 10.6 nM
IC50 (second compound 10 µM): 7.75 nM
viability, T/C [1]: 110%
viability, T/C [2]: 95.8%
viability, T/C [3]: 111%
viability, T/C [4]: 51.9%
viability, T/C [5]: 6.34%
viability, T/C [6]: 0.22%
viability, T/C [7]: 110%
viability, T/C [8]: 111%
viability, T/C [9]: 111%
viability, T/C [10]: 54.3%
viability, T/C [11]: 1.86%
viability, T/C [12]: 0.17%
viability, T/C [13]: 110%
viability, T/C [14]: 111%
viability, T/C [15]: 116%
viability, T/C [16]: 53.2%
viability, T/C [17]: 1.62%
viability, T/C [18]: 0.2%
viability, T/C [19]: 111%
viability, T/C [20]: 117%
viability, T/C [21]: 110%
viability, T/C [22]: 52.6%
viability, T/C [23]: 1.26%
viability, T/C [24]: 0.43%
viability, T/C [25]: 117%
viability, T/C [26]: 114%
viability, T/C [27]: 100%
viability, T/C [28]: 36.1%
viability, T/C [29]: 0.83%
viability, T/C [30]: 0.22%

COc1cc(Nc2ncc3c(n2)-c2ccc(Cl)cc2C(c2c(F)cccc2OC)=NC3)ccc1C(=O)O + NC1CC1c1ccc(-c2cccc(O)c2)cc1
IC50 (second compound 0.1 µM): > 1000 nM
IC50 (second compound 0.316 µM): > 1000 nM
IC50 (second compound 1 µM): > 1000 nM
IC50 (second compound 3.16 µM): > 1000 nM
IC50 (second compound 10 µM): > 1000 nM
viability, T/C [3]: 128%
viability, T/C [4]: 115%
viability, T/C [5]: 116%
viability, T/C [6]: 107%
viability, T/C (second compound 0.1 µM, first compound 0.316 µM): 124%
viability, T/C (second compound 0.1 µM, first compound 1 µM): 111%
viability, T/C [9]: 133%
viability, T/C [10]: 125%
viability, T/C [11]: 119%
viability, T/C [12]: 108%
viability, T/C (second compound 0.316 µM, first compound 0.316 µM): 124%
viability, T/C (second compound 0.316 µM, first compound 1 µM): 109%
viability, T/C [15]: 140%
viability, T/C [16]: 132%
viability, T/C [17]: 130%
viability, T/C [18]: 117%
viability, T/C (second compound 1 µM, first compound 0.316 µM): 131%
viability, T/C (second compound 1 µM, first compound 1 µM): 114%
viability, T/C [21]: 155%
viability, T/C [22]: 143%
viability, T/C [23]: 143%
viability, T/C [24]: 126%
viability, T/C (second compound 3.16 µM, first compound 0.316 µM): 128%
viability, T/C (second compound 3.16 µM, first compound 1 µM): 111%
viability, T/C [27]: 137%
viability, T/C [28]: 139%
viability, T/C [29]: 130%
viability, T/C [30]: 123%
viability, T/C (second compound 10 µM, first compound 0.316 µM): 120%
viability, T/C (second compound 10 µM, first compound 1 µM): 89.8%

NS(=O)(=O)OCC1CC(n2ccc3c(NC4CCc5ccccc54)ncnc32)CC1O (stereo not given) + NC1CC1c1ccc(-c2cccc(O)c2)cc1
IC50 (second compound 0.1 µM): 249 nM
IC50 (second compound 0.316 µM): 303 nM
IC50 (second compound 1 µM): 319 nM
IC50 (second compound 3.16 µM): 397 nM
IC50 (second compound 10 µM): 265 nM
viability, T/C [31]: 98.8%
viability, T/C [32]: 89.8%
viability, T/C [33]: 76.8%
viability, T/C [34]: 47.3%
viability, T/C [35]: 11%
viability, T/C [36]: 4.48%
viability, T/C [37]: 104%
viability, T/C [38]: 101%
viability, T/C [39]: 82.3%
viability, T/C [40]: 53.9%
viability, T/C [41]: 11.7%
viability, T/C [42]: 3.87%
viability, T/C [43]: 116%
viability, T/C [44]: 96.8%
viability, T/C [45]: 85.1%
viability, T/C [46]: 55.9%
viability, T/C [47]: 14.4%
viability, T/C [48]: 4.26%
viability, T/C [49]: 116%
viability, T/C [50]: 98.2%
viability, T/C [51]: 84.4%
viability, T/C [52]: 69%
viability, T/C [53]: 12.8%
viability, T/C [54]: 3.82%
viability, T/C [55]: 107%
viability, T/C [56]: 90.6%
viability, T/C [57]: 73.4%
viability, T/C [58]: 52.8%
viability, T/C [59]: 14%
viability, T/C [60]: 3.25%

Nc1ccccc1NC(=O)c1ccc(CNC(=O)OCc2cccnc2)cc1 + NC1CC1c1ccc(-c2cccc(O)c2)cc1
IC50 (second compound 0.1 µM): 596 nM
IC50 (second compound 0.316 µM): 570 nM
IC50 (second compound 1 µM): 585 nM
IC50 (second compound 3.16 µM): 563 nM
IC50 (second compound 10 µM): 514 nM
viability, T/C [31]: 93.8%
viability, T/C [32]: 104%
viability, T/C [33]: 91.6%
viability, T/C [34]: 98.6%
viability, T/C [35]: 18.1%
viability, T/C [36]: 1.51%
viability, T/C [37]: 99.6%
viability, T/C [38]: 99.6%
viability, T/C [39]: 108%
viability, T/C [40]: 93.5%
viability, T/C [41]: 15.4%
viability, T/C [42]: 0.84%
viability, T/C [43]: 98.8%
viability, T/C [44]: 94.1%
viability, T/C [45]: 98.8%
viability, T/C [46]: 94.7%
viability, T/C [47]: 17.7%
viability, T/C [48]: 0.9%
viability, T/C [49]: 99.8%
viability, T/C [50]: 110%
viability, T/C [51]: 109%
viability, T/C [52]: 87.9%
viability, T/C [53]: 18.5%
viability, T/C [54]: 1.44%
viability, T/C [55]: 96.2%
viability, T/C [56]: 97.3%
viability, T/C [57]: 104%
viability, T/C [58]: 83.3%
viability, T/C [59]: 11.8%
viability, T/C [60]: 1.02%

O=C(C=Cc1cccc(S(=O)(=O)Nc2ccccc2)c1)NO + NC1CC1c1ccc(-c2cccc(O)c2)cc1
IC50 (second compound 0.1 µM): 240 nM
IC50 (second compound 0.316 µM): 237 nM
IC50 (second compound 1 µM): 260 nM
IC50 (second compound 3.16 µM): 268 nM
IC50 (second compound 10 µM): 238 nM
viability, T/C [31]: 104%
viability, T/C [32]: 103%
viability, T/C [33]: 94%
viability, T/C [34]: 23.5%
viability, T/C [35]: 3.89%
viability, T/C [36]: 91.1%
viability, T/C [37]: 106%
viability, T/C [38]: 113%
viability, T/C [39]: 90.8%
viability, T/C [40]: 25.9%
viability, T/C [41]: 3.14%
viability, T/C [42]: 89.5%
viability, T/C [43]: 116%
viability, T/C [44]: 101%
viability, T/C [45]: 109%
viability, T/C [46]: 23.3%
viability, T/C [47]: 3.06%
viability, T/C [48]: 98.7%
viability, T/C [49]: 118%
viability, T/C [50]: 106%
viability, T/C [51]: 111%
viability, T/C [52]: 26%
viability, T/C [53]: 3.1%
viability, T/C [54]: 101%
viability, T/C [55]: 99.3%
viability, T/C [56]: 96.8%
viability, T/C [57]: 87.5%
viability, T/C [58]: 21.8%
viability, T/C [59]: 1.11%
viability, T/C [60]: 99%
